In patent US20240308985A1 (Psy Therapeutics, Inc., priority 2021, published 2024):
pIC50: −log10 of the molar value.

Each compound was assayed against Monoacylglycerol Lipase (MAGL) (Homo sapiens (Human), UniProt Q99685) (assay: MAGL inhibition potency (IC50) assay with 4NPA substrate). Conditions: Method 6: Reaction Biology MAGL enzyme, 6 nM; read-out: MAGL Potency (Detection Method).
Format: biochemical
From the text: The potency of certain compounds for inhibiting MAGL were obtained using the following assays. The monoacylglycerol lipase inhibitor screening assay kit from Cayman Chemical was used to measure the MAGL potency for the compounds in Table 6 and Table 7. Cayman's Monoacylglycerol Lipase Inhibitor Screening Assay provides a method for screening human MAGL inhibitors. MAGL hydrolyzes 4-nitrophenylacetate resulting in a yellow product, 4-nitrophenol, with an absorbance of 405-412 nm. MAGL Inhibition was measured by the following assay. Monoacylglycerol Lipase (MAGL) inhibition was measured using recombinant MAGL enzyme (aa 2-303 RBC, internal preparation) and the substrate 4-Nitrophenyl acetate (4NPA) (Sigma-Aldrich, N8130). Hydrolysis of the substrate in the presence of the enzyme was measured by absorbance at 405 nm. 10 μL of assay buffer (10 mM Tris pH 7.5, 1 mM EDTA, 0.9% DMSO) was added to a black 384-well non-binding plate with clear bottom (Greiner, 781906) for each reaction. […] DMSO control wells were included for reference. A 10.8 nM (1.8×) MAGL mix in assay buffer was prepared, with 25 μL added to each reaction well, for a final assay concentration of 6 nM. No enzyme wells received 25 μL of buffer. Plate was incubated at room temperature for 30 minutes. 35 mM solution of 4NPA in methanol was prepared daily. A 4.5×4NPA substrate solution was prepared in assay buffer and 10 μL was added to each reaction well, for a final assay concentration of 0.25 mM. Plate was spun for 1 minute at 1000 rpm before measuring absorbance using a CLARIOstar plate reader (BMG Labtech). A kinetic reading at 405 nm was done every minute for 30 minutes. Data was analyzed using the linear slope of the reaction progress curve and the average of the no-enzyme wells (background) was subtracted from the data. The background-subtracted slope data was converted to % activity using the average of wells with enzyme and DMSO vehicle. IC50s were calculated using GraphPad software (Sigmoidal dose response, variable slope equation). […] Table 8 provides potency measurements of MAGL inhibition measured using the Potency Assay of Example 22 above, with the following modifications described in Table C. [table]

Monoacylglycerol Lipase (MAGL), sequence (Q99685 2-303): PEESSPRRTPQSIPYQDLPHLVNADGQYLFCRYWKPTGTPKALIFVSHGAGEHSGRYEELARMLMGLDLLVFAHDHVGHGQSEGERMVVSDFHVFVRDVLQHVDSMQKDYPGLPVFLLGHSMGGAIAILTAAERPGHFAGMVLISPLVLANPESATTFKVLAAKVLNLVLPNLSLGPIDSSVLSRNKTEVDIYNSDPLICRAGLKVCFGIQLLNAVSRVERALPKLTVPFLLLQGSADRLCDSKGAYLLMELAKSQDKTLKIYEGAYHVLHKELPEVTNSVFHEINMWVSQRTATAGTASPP

pIC50 | Compound
6.82 to 7.30 | Cc1cnn(C2CC3(C2)CN(C(=O)c2cc(O)ccc2F)C3)c1-c1ccccc1F [Compound 408, (2-fluoro-5-hydroxyphenyl){6-[5-(o-fluorophenyl)-4-methyl-1-pyrazolyl]-2-aza-2-spiro[3.3]heptyl}methanone]
6.30 to 6.82 | O=C(c1cc(O)ccc1F)N1CC2(CC(n3ncc(C4CC4)c3-c3ccccc3Cl)C2)C1 [Compound 411, {6-[5-(o-chlorophenyl)-4-cyclopropyl-1-pyrazolyl]-2-aza-2-spiro[3.3]heptyl}(2-fluoro-5-hydroxyphenyl)methanone]
> 7.30 | Cc1cn(C2CC3(C2)CN(C(=O)c2cc(O)ccc2F)C3)nc1-c1ccccc1F [Compound 417, (2-fluoro-5-hydroxyphenyl){6-[3-(o-fluorophenyl)-4-methyl-1-pyrazolyl]-2-aza-2-spiro[3.3]heptyl}methanone]
> 7.30 | Cc1cn(C2CC3(C2)CN(C(=O)c2cc(O)ccc2F)C3)nc1-c1ccccc1C(F)(F)F [Compound 444, (2-fluoro-5-hydroxyphenyl)(6-{4-methyl-3-[o-(trifluoromethyl)phenyl]-1-pyrazolyl}-2-aza-2-spiro[3.3]heptyl)methanone]

The remaining lines, values behind:

Compound | pIC50
Cc1cc(F)c(C(=O)N2CC3(CC(n4ncc(C)c4-c4ccccc4C)C3)C2)cc1O [Compound 407] | 6.82 to 7.30
Cc1cc(-c2cc(F)ccc2C)n(C2CC3(C2)CN(C(=O)c2cc(O)ccc2F)C3)n1 [Compound 415, (2-fluoro-5-hydroxyphenyl){6-[5-(5-fluoro-2-tolyl)-3-methyl-1-pyrazolyl]-2-aza-2-spiro[3.3]heptyl}methanone] | 6.82 to 7.30
Cc1ccccc1-c1c(C)cnn1C1CC2(C1)CN(C(=O)c1ccc(F)cc1OC1CC1)C2 [Compound 419, (2-cyclopropoxy-4-fluorophenyl){6-[4-methyl-5-(o-tolyl)-1-pyrazolyl]-2-aza-2-spiro[3.3]heptyl}methanone] | 5.29 to 6.00
Cc1cnn(C2CC3(C2)CN(C(=O)c2ccc(F)cc2OC2CC2)C3)c1-c1ccccc1C(F)(F)F [Compound 420, (2-cyclopropoxy-4-fluorophenyl)(6-{4-methyl-5-[o-(trifluoromethyl)phenyl]-1-pyrazolyl}-2-aza-2-spiro[3.3]heptyl)methanone] | 5.29 to 6.00
Cc1ccc(F)cc1-c1c(C)cnn1C1CC2(C1)CN(C(=O)c1ccc(F)cc1OC1CC1)C2 [Compound 422, (2-cyclopropoxy-4-fluorophenyl){6-[5-(5-fluoro-2-tolyl)-4-methyl-1-pyrazolyl]-2-aza-2-spiro[3.3]beptyl}methanone] | 5.29 to 6.00
Cc1cc(-c2cc(F)ccc2C)n(C2CC3(C2)CN(C(=O)c2ccc(F)cc2OC2CC2)C3)n1 [Compound 423, (2-cyclopropoxy-4-fluorophenyl){6-[5-(5-fluoro-2-tolyl)-3-methyl-1-pyrazolyl]-2-aza-2-spiro[3.3]heptyl}methanone] | 5.29 to 6.00
Cc1cn(C2CC3(C2)CN(C(=O)c2ccc(F)cc2OC2CC2)C3)nc1-c1ccccc1F [Compound 425, (2-cyclopropoxy-4-fluorophenyl){6-[3-(o-fluorophenyl)-4-methyl-1-pyrazolyl]-2-aza-2-spiro[3.3]heptyl}methanone] | 6.30 to 6.82
Cc1cc(-c2cc(F)ccc2C)n(C2CC3(C2)CN(C(=O)c2ccc(F)cc2OC(F)F)C3)n1 [Compound 428] | 6.30 to 6.82
COc1cc(F)ccc1C(=O)N1CC2(CC(n3nc(-c4cc(F)ccc4C)cc3C)C2)C1 [Compound 439, (4-fluoro-2-methoxyphenyl){6-[3-(5-fluoro-2-tolyl)-5-methyl-1-pyrazolyl]-2-aza-2-spiro[3.3]heptyl}methanone] | 5.29 to 6.00
Cc1cc(F)c(C(=O)N2CC3(CC(n4cc(C)c(-c5ccccc5C)n4)C3)C2)cc1O [Compound 443] | 5.29 to 6.00

Same assay, conditions: Method 6: Reaction Biology MAGL enzyme, 6 nM; read-out: Potency (MAGL inhibition)

pIC50 | Compound
< 5.00 | Cc1cnn(C2CC3(C2)CN(C(=O)c2cc(O)ccc2F)C3)c1-c1ccccc1Cl [Compound 404]
< 5.00 | Cc1ccccc1-c1ccnn1C1CC2(C1)CN(C(=O)c1cc(O)ccc1F)C2 [Compound 405]
< 5.00 | Cc1cc(-c2ccccc2C)n(C2CC3(C2)CN(C(=O)c2cc(O)ccc2F)C3)n1 [Compound 406]
< 5.00 | Cc1cn(C2CC3(C2)CN(C(=O)c2cc(O)ccc2F)C3)nc1-c1ccccc1Cl [Compound 416]
< 5.00 | O=C(c1ccc(F)cc1OC1CC1)N1CC2(CC(n3nc(C(F)(F)F)cc3-c3ccccc3C(F)(F)F)C2)C1 [Compound 424, (2-cyclopropoxy-4-fluorophenyl)(6-(3-(trifluoromethyl)-5-(2-(trifluoromethyl)phenyl)-1H-pyrazol-1-yl)-2-azaspiro[3.3]heptan-2-yl)methanone]
< 5.00 | Cc1ccccc1-c1ccn(C2CC3(C2)CN(C(=O)c2cc(O)ccc2F)C3)n1 [Compound 441]
< 5.00 | Cc1ccccc1-c1cc(C)n(C2CC3(C2)CN(C(=O)c2cc(O)ccc2F)C3)n1 [Compound 442]

Same assay, conditions: Method 11: Reaction Biology MAGL enzyme, 25 nM (name: Conc 20); read-out: MAGL Potency (Detection Method)

pIC50 | Compound
5.29 to 6.00 | Cc1ccc(F)cc1-c1cc(C)n(C2CC3(C2)CN(C(=O)c2ccc(F)cc2OCF)C3)n1 [Compound 437, (4-fluoro-2-fluoromethoxyphenyl){6-[3-(5-fluoro-2-tolyl)-5-methyl-1-pyrazolyl]-2-aza-2-spiro[3.3]heptyl}methanone]

Same assay, conditions: Method 11: Reaction Biology MAGL enzyme, 25 nM (name: Conc 20); read-out: Potency (MAGL inhibition)

pIC50 | Compound
< 5.00 | Cc1cc(-c2cc(F)ccc2C)n(C2CC3(C2)CN(C(=O)c2ccc(F)cc2OC(F)(F)F)C3)n1 [Compound 427]

Same assay, conditions: Method 14: Reaction Biology MAGL enzyme, 6 nM; read-out: MAGL Potency (Detection Method)

pIC50 | Compound
6.82 to 7.30 | O=C(c1cc(O)ccc1F)N1CC2(CC(n3ncnc3-c3ccccc3Cl)C2)C1 [Compound 376, {6-[5-(o-chlorophenyl)-1H-1,2,4-triazol-1-yl]-2-aza-2-spiro[3.3]beptyl}(2-fluoro-5-hydroxyphenyl)methanone]
6.00 to 6.30 | Cc1ccccc1-c1nnc(C2CC3(C2)CN(C(=O)c2cc(O)ccc2F)C3)o1 [Compound 378, (2-fluoro-5-hydroxyphenyl){6-[5-(o-tolyl)-1,3,4-oxadiazol-2-yl]-2-aza-2-spiro[3.3]heptyl}methanone]
6.30 to 6.82 | Cc1ccccc1-c1ccn(C(=O)C2CC3(C2)CN(C(=O)c2cc(O)ccc2F)C3)n1 [Compound 381, {2-(2-fluoro-5-hydroxybenzoyl)-2-aza-6-spiro[3,3]heptyl}[3-(o-tolyl)-1-pyrazolyl]methanone]
> 7.30 | Cc1ccccc1-c1nn(C2CC3(C2)CN(C(=O)c2cc(O)ccc2F)C3)cc1C [Compound 440, (2-fluoro-5-hydroxyphenyl){6-[4-methyl-3-(o-tolyl)-1-pyrazolyl]-2-aza-2-spiro[3.3]heptyl}methanone]

Second part, the compound before the results:

Compound | pIC50
Cc1cc(C2CC3(C2)CN(C(=O)c2ccc(F)cc2OC2CC2)C3)n(-c2ccccc2C)n1 [Compound 374, (2-cyclopropoxy-4-fluorophenyl) {6-[3-methyl-1-(o-tolyl)-5-pyrazolyl]-2-aza-2-spiro[3.3]heptyl}methanone] | 6.30 to 6.82
O=C(c1cc(O)ccc1F)N1CC2(CC(c3nnc(-c4ccccc4Cl)o3)C2)C1 [Compound 377, {6-[5-(o-chlorophenyl)-1,3,4-oxadiazol-2-yl]-2-aza-2-spiro[3.3]heptyl}(2-fluoro-5-hydroxyphenyl)methanone] | 6.00 to 6.30
Cc1cc(F)ccc1-n1c(C)cnc1C1CC2(C1)CN(C(=O)c1cc(O)ccc1F)C2 [Compound 380, (2-fluoro-5-hydroxyphenyl){6-[1-(4-fluoro-2-tolyl)-5-methyl-2-imidazolyl]-2-aza-2-spiro[3.3]heptyl}methanone] | 5.29 to 6.00
O=C(c1cc(O)ccc1F)N1CC2(CC(c3nccn3-c3ccccc3)C2)C1 [Compound 401, (2-fluoro-5-hydroxyphenyl){6-(1-phenyl-2-imidazolyl)-2-aza-2-spiro[3.3]heptyl}methanone] | 6.00 to 6.30

Same assay, conditions: Method 14: Reaction Biology MAGL enzyme, 6 nM; read-out: Potency (MAGL inhibition)

pIC50 | Compound
< 5.00 | O=C(c1cc(O)ccc1F)N1CC2(CC(C(=O)N3CCOCC3)C2)C1 [Compound 384]
< 5.00 | O=C(c1cc(O)ccc1F)N1CC2(CC(C(=O)N3CCCC3)C2)C1 [Compound 388]
< 5.00 | O=C(c1cc(O)ccc1F)N1CC2(CC(C(=O)N3CCC4(COC4)C3)C2)C1 [Compound 391]
< 5.00 | O=C(NCC1COC1)C1CC2(C1)CN(C(=O)c1cc(O)ccc1F)C2 [Compound 395]
< 5.00 | O=C(c1cc(O)ccc1F)N1CC2(CC(C(=O)N3CCC4(CCCO4)C3)C2)C1 (centres unmarked) [Compound 400]
< 5.00 | Cc1cc(C2CC3(C2)CN(C(=O)c2ccc4c(c2)OCC4)C3)n(-c2ccccc2C)n1 [Compound 402]
< 5.00 | Cc1cc(C2CC3(C2)CN(C(=O)c2cccc4c2CCO4)C3)n(-c2ccccc2C)n1 [Compound 403]
